Assay results as given in US20230382924A1, “MODULATORS OF CYSTIC FIBROSIS TRANSMEMBRANE CONDUCTANCE REGULATOR” (VERTEX PHARMACEUTICALS INCORPORATED, priority 2020, published 2023).
Like-named read-outs stand apart in the source and are kept apart here.

Biological target: CFTR (Homo sapiens, UniProt P13569)
Experiment: Membrane Potential Dye, Enteroid Assay A
Assay type: cell-based
Settings: for EC50: read-out: Ent. A EC50
Method: Base medium (ADF+++) consisted of Advanced DMEM/Ham's F12, 2 mM Glutamax, 10 mM HEPES, […] penicillin/streptomycin.
Bath 1 Buffer consisted of 1 mM MgCl2, 160 mM NaCl, 4.5 mM KCl, 10 mM HEPES, 10 mM Glucose, 2 mM CaCl2).
Chloride Free Buffer consisted of 1 mM Magnesium Gluconate, 2 mM Calcium Gluconate, 4.5 mM Potassium Gluconate, 160 mM Sodium Gluconate, 10 mM HEPES, 10 mM Glucose.
Bath 1 Dye Solution consisted of Bath 1 Buffer, 0.04% Pluronic F127, 20 μM Methyl Oxonol, 30 μM CaCCinh-A01, 30 μM Chicago Sky Blue.
Chloride Free Dye Solution consisted of Chloride Free Buffer, 0.04% Pluronic F127, 20 μM Methyl Oxonol, 30 μM CaCCinh-A01, 30 μM Chicago Sky Blue.
3. Enteroid Cell Harvesting and Seeding
Cells were recovered in cell recovery solution, collected by centrifugation at 650 rpm for 5 min at 4° C., resuspended in TryPLE and incubated for 5 min at 37° C. Cells were then collected by centrifugation at 650 rpm for 5 min at 4° C. and resuspended in IEMM containing 10 μM ROCK inhibitor (RI).
4. Membrane Potential Dye, Enteroid Assay A
Briefly, cells were washed 5 times in Bath 1 Buffer. Bath 1 Dye Solution was added, and the cells were incubated for 25 min at room temperature. Following dye incubation, cells were washed 3 times in Chloride Free Dye Solution. Chloride transport was initiated by addition of Chloride Free Dye Stimulation Solution and the fluorescence signal was read for 15 min. […] Chloride transport was then expressed as a percentage of the chloride transport following treatment with 3 μM N-[(6-amino-2-pyridyl)sulfonyl]-6-(3-fluoro-5-isobutoxy-phenyl)-2-[(4S)-2,2,4-trimethylpyrrolidin-1-yl]pyridine-3-carboxamide, 3 μM (R)-1-(2,2-difluorobenzo[d][1,3]dioxol-5-yl)-N-(1-(2,3-dihydroxypropyl)-6-fluoro-2-(1-hydroxy-2-methylpropan-2-yl)-1H-indol-5-yl)cyclopropanecarboxamide and 300 nM acute N-[2,4-bis(1,1-dimethylethyl)-5-hydroxyphenyl]-1,4-dihydro-4-oxoquinoline-3-carboxamide triple combination control (% Activity).

CFTR, sequence (P13569 with tags, fused parts or gaps DEL508-508): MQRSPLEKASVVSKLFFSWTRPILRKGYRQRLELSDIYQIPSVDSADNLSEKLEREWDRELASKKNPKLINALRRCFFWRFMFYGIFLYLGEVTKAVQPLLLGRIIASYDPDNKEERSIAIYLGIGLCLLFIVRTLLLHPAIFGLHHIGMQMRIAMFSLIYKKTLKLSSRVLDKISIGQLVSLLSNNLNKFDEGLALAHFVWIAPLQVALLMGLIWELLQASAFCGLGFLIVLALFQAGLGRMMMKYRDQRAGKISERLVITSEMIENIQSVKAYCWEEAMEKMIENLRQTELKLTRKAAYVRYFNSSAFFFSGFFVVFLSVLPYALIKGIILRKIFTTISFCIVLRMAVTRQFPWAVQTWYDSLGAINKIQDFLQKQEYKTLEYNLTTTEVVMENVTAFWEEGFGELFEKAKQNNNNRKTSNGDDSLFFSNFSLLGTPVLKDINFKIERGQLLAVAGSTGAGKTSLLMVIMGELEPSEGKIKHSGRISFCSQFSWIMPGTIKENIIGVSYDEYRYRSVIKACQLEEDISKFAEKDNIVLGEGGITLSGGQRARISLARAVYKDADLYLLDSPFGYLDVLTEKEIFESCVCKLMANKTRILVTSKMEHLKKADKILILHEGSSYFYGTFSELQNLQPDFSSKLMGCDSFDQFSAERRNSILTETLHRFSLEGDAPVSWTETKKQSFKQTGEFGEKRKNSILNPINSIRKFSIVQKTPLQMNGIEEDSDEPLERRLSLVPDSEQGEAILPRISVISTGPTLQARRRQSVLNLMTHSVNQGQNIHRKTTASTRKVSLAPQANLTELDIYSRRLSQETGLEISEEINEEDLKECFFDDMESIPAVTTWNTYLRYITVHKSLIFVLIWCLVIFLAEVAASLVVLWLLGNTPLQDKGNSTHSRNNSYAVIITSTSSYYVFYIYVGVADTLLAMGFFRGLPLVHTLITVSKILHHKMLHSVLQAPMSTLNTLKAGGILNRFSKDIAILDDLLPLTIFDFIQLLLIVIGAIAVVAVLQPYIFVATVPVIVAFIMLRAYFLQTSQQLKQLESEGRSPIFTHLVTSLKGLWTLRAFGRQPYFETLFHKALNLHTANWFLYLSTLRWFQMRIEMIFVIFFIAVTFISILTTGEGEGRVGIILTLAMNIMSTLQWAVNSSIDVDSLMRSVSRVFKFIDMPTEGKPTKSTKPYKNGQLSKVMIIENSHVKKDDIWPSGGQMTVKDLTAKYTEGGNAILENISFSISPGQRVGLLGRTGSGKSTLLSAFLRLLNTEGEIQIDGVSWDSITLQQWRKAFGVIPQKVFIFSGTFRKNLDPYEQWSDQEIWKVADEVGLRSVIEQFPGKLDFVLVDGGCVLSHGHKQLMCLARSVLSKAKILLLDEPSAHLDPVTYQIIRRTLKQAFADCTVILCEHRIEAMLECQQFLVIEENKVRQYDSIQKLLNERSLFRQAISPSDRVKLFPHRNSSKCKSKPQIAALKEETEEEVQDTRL

Cc1cccc(Cc2ccccc2)c1-c1cc2nc(n1)NS(=O)(=O)c1cccc(c1)C(=O)N[C@H](CC(C)C)CO2 [Compound 168]
Ent. A Max Activity (Table 9): +++ (+++ is >60%) | EC50 (Table 9): < 1 µM

Cc1cccc(C)c1-c1cc2nc(n1)NS(=O)(=O)c1cncc(c1)C(=O)N[C@H](CC(C)C)CO2 [Compound 413]
Ent. A Max Activity (Table 8): +++ (+++ is >60%) | EC50 (Table 8): 1 to 3 µM

Cc1cccc(C)c1-c1cc2nc(n1)NS(=O)(=O)c1cc(ccn1)C(=O)N[C@H](CC1CCCCC1)CO2 [Compound 69, (11R)-11-(Cyclohexylmethyl)-6-(2,6-dimethylphenyl)-2,2-dioxo-9-oxa-2λ^6-thia-3,5,12,17,19-pentazatricyclo[12.3.1.14,8]nonadeca-1(17),4(19),5,7,14(18),15-hexaen-13-one]
Ent. A Max Activity (Table 8): +++ (+++ is >60%) | EC50 (Table 8): < 1 µM

Cc1cccc(C)c1-c1cc2nc(n1)NS(=O)(=O)c1cccc(c1)C(=O)NCC(c1ccc(Br)cc1)O2 (racemic) [Compound 18, 10-(4-Bromophenyl)-6-(2,6-dimethylphenyl)-2,2-dioxo-9-oxa-2λ^6-thia-3,5,12,19-tetrazatricyclo[12.3.1.14,8]nonadeca-1(18),4(19),5,7,14,16-hexaen-13-one]
Ent. A Max Activity (Table 8): +++ (+++ is >60%) | EC50 (Table 8): < 1 µM

Cc1ccccc1C1CNC(=O)c2cccc(c2)S(=O)(=O)Nc2nc(cc(-c3c(C)cccc3C)n2)O1 (stereo not shown) [Compound 279]
Ent. A Max Activity (Table 8): +++ (+++ is >60%) | EC50 (Table 8): < 1 µM

COc1ccccc1C1CNC(=O)c2cccc(c2)S(=O)(=O)Nc2nc(cc(-c3c(C)cccc3C)n2)O1 (stereo not shown) [Compound 280]
Ent. A Max Activity (Table 8): +++ (+++ is >60%) | EC50 (Table 8): < 1 µM

CCC1CCC(c2cc3nc(n2)NS(=O)(=O)c2cccc(c2)C(=O)N[C@H](CC(C)C)CO3)CC1 (stereo partly shown) [Compound 310]
EC50 (Table 8): < 1 µM

Cc1cccc(C)c1-c1cc2nc(n1)NS(=O)(=O)c1cccc(c1)C(=O)NCC1(CCN(C(=O)c3cc4ccccc4n3CC#N)CC1)CO2 [Compound 452]
Ent. A Max Activity (Enteroid Assay A): ++ (++ is 30-60%) | EC50 (Enteroid Assay A): 1 to 3 µM

Cc1cccc(C)c1-c1cc2nc(n1)NS(=O)(=O)c1cccc(c1)C(=O)N[C@@H](C)[C@H](c1ccc(C(C)(C)C)cc1)O2 [Compound 228]
Ent. A Max Activity (Table 9): + (+ is <30%) | EC50 (Table 9): < 1 µM

Cc1cccc(C)c1-c1cc2nc(n1)NS(=O)(=O)c1cccc(c1)C(=O)NC[C@@H](c1ccc(C(C)(F)F)cc1)O2 (stereo in doubt) [Compound 399]
Ent. A Max Activity (Table 8): +++ (+++ is >60%) | EC50 (Table 8): < 1 µM

Cc1cccc(C)c1-c1cc2nc(n1)NS(=O)(=O)c1cccc(c1)CNC1C[C@@H](CN(C(=O)OCc3ccccc3)C1)O2 (stereo in doubt) [Compound 192]
Ent. A Max Activity (Enteroid Assay A): ++ (++ is 30-60%) | EC50 (Enteroid Assay A): 1 to 3 µM

COc1cccc(-c2cccc(C(=O)N3CCC4(CC3)CNC(=O)c3cccc(c3)S(=O)(=O)Nc3nc(cc(-c5c(C)cccc5C)n3)OC4)c2)c1 [Compound 459]
Ent. A Max Activity (Enteroid Assay A): ++ (++ is 30-60%) | EC50 (Enteroid Assay A): 1 to 3 µM

Cc1cccc(C)c1-c1cc2nc(n1)NS(=O)(=O)c1cccc(c1)C(=O)NCC1(CCN(Cc3cccc(OC(F)(F)F)c3F)CC1)CO2 [Compound 431]
Ent. A Max Activity (Enteroid Assay A): ++ (++ is 30-60%) | EC50 (Enteroid Assay A): < 1 µM

Cc1cccc(C)c1-c1cc2nc(n1)NS(=O)(=O)c1cccc(c1)C(=O)NCC(c1ccc(C(C)(C)O)cc1)O2 (stereo not shown) [Compound 245]
EC50 (Table 8): 3 to 30 µM

Cc1cccc(C)c1-c1cc2nc(n1)NS(=O)(=O)c1cccc(c1)C(=O)NCC(c1ccccn1)O2 (stereo not shown) [Compound 234]
Ent. A Max Activity (Table 8): + (+ is <30%)

Cc1cccc(C)c1-c1cc2nc(n1)NS(=O)(=O)c1cccc(c1)C(=O)NCC1(CCN(C(=O)c3cc4ccc(OC(F)(F)F)cc4[nH]3)CC1)CO2 [Compound 84, 6-(2,6-Dimethylphenyl)-2,2-dioxo-1′-[6-(trifluoromethoxy)-1H-indole-2-carbonyl]spiro[9-oxa-2λ^6-thia-3,5,13,20-tetrazatricyclo[13.3.1.14,8]icosa-1(19),4(20),5,7,15,17-hexaene-11,4′-piperidine]-14-one]
Ent. A Max Activity (Enteroid Assay A): ++ (++ is 30-60%) | EC50 (Enteroid Assay A): < 1 µM

CC(C)COc1cccc(-c2cc3nc(n2)NS(=O)(=O)c2cccc(c2)C(=O)N[C@H](CC(C)C)CO3)c1 [Compound 331]
EC50 (Enteroid Assay A): 1 to 3 µM

Cc1cccc(C)c1-c1cc2nc(n1)NS(=O)(=O)c1cccc(c1)C(=O)NCC(C1CCCCC1)O2 (stereo not shown) [Compound 281]
Ent. A Max Activity (Table 8): +++ (+++ is >60%) | EC50 (Table 8): < 1 µM

Cc1cccc(C)c1-c1cc2nc(n1)NS(=O)(=O)c1cccc(c1)C(=O)NCC1(CCCCC1)CO2 [Compound 205]
Ent. A Max Activity (Enteroid Assay A): +++ (+++ is >600%) | EC50 (Enteroid Assay A): < 1 µM

Cc1cccc(C)c1-c1cc2nc(n1)NS(=O)(=O)c1cccc(c1)C(=O)N[C@@H](C(CC(C)C)c1ccccc1)CO2 (stereo in doubt) [Compound 180]
Ent. A Max Activity (Table 9): ++ (++ is 30-60%) | EC50 (Table 9): < 1 µM

Cc1cccc(C)c1-c1cc2nc(n1)NS(=O)(=O)c1cccc(c1)C(=O)NCC(c1ccccc1C(C)(C)C)O2 (stereo not shown) [Compound 278]
EC50 (Table 8): < 1 µM

Cc1cccc(C)c1-c1cc2nc(n1)NS(=O)(=O)c1cccc(c1)C(=O)NC1(CCN(C(C)C)CC1)CO2 [Compound 175]
Ent. A Max Activity (Table 9): + (+ is <30%) | EC50 (Table 9): 3 to 30 µM

Cc1cccc(C)c1-c1cc2nc(n1)NS(=O)(=O)c1cccc(c1)C(=O)N[C@@H]1CCN(CCC(C)(C)C)C[C@H]1O2 (single isomer, unassigned) [Compound 89, 5-(3,3-Dimethylbutyl)-20-(2,6-dimethylphenyl)-2-oxa-16λ^6-thia-5,9,17,19,22-pentaazatetracyclo[16.3.1.111,15.03,8]tricosa-1(21),11(23),12,14,18(22),19-hexaene-10,16,16-trione]
Ent. A Max Activity (Table 9): + (+ is <30%)

CCC(C)(C)c1ccc(C2CNC(=O)c3cccc(c3)S(=O)(=O)Nc3nc(cc(-c4c(C)cccc4C)n3)O2)cc1 (stereo not shown) [Compound 153]
Ent. A Max Activity (Table 8): + (+ is <30%) | EC50 (Table 8): 3 to 30 µM

Cc1cccc(C)c1-c1cc2nc(n1)NS(=O)(=O)c1cccc(c1)C(=O)NC(CCC1CCOCC1)CO2 (stereo not shown) [Compound 186]
Ent. A Max Activity (Table 8): +++ (+++ is >60%) | EC50 (Table 8): 3 to 30 µM

Cc1cccc(C)c1-c1cc2nc(n1)NS(=O)(=O)c1cccc(c1)C(=O)N[C@@H]1CCCC[C@@H]1O2 [Compound 363]
Ent. A Max Activity (Enteroid Assay A): ++ (++ is 30-60%) | EC50 (Enteroid Assay A): 1 to 3 µM

Cc1cccc(C)c1-c1cc2nc(n1)NS(=O)(=O)c1cccc(c1)C(=O)NCC(c1ccc3c(c1)OCCO3)O2 (stereo not shown) [Compound 116]
Ent. A Max Activity (Table 8): +++ (+++ is >60%) | EC50 (Table 8): < 1 µM

Cc1cccc(C)c1-c1cc2nc(n1)NS(=O)(=O)c1cccc(c1)C(=O)NC[C@H](c1ccc(CCC(C)(C)C)cc1)O2 (stereo in doubt) [Compound 148]
Ent. A Max Activity (Table 9): ++ (++ is 30-60%) | EC50 (Table 9): < 1 µM

Cc1cccc(C)c1-c1cc2nc(n1)NS(=O)(=O)c1cccc(c1)C(=O)NC[C@@H](CC(C)C)O2 [Compound 254]
Ent. A Max Activity (Table 8): + (+ is <30%)

Cc1cccc(C)c1-c1cc2nc(n1)NS(=O)(=O)c1cccc(c1)C(=O)N[C@@H](CC13CC4CC(CC(C4)C1)C3)CO2 (single isomer, unassigned) [Compound 111, 11-(1-adamantylmethyl)-6-(2,6-dimethylphenyl)-2,2-dioxo-9-oxa-2λ^6-thia-3,5,12,19-tetrazatricyclo[12.3.1.14,8]nonadeca-1(18),4(19),5,7,14,16-hexaen-13-one]
Ent. A Max Activity (Table 9): ++ (++ is 30-60%) | EC50 (Table 9): < 1 µM

Cc1cccc(C)c1-c1cc2nc(n1)NS(=O)(=O)c1cccc(c1)C(=O)NC1CC(CN(CCC3(C(F)(F)F)CC3)C1)O2 (stereo not shown) [Compound 194]
EC50 (Enteroid Assay A): 1 to 3 µM

Cc1cccc(C)c1-c1cc2nc(n1)NS(=O)(=O)c1cccc(c1)C(=O)N[C@@H]1CCN(Cc3ccc(C(C)(C)C)cc3)C[C@@H]1O2 (single isomer, unassigned) [Compound 91, 5-[(4-tert-butylphenyl)methyl]-20-(2,6-dimethylphenyl)-2-oxa-16λ^6-thia-5,9,17,19,22-pentaazatetracyclo[16.3.1.111,15.03,8]tricosa-1(21),11(23),12,14,18(22),19-hexaene-10,16,16-trione]
Ent. A Max Activity (Table 9): +++ (+++ is >60%) | EC50 (Table 9): < 1 µM

Cc1cccc(C)c1-c1cc2nc(n1)NS(=O)(=O)c1cccc(c1)C(=O)NC[C@H](Cc1ccccc1)O2 [Compound 346]
Ent. A Max Activity (Enteroid Assay A): ++ (++ is 30-60%) | EC50 (Enteroid Assay A): < 1 µM

Cc1cccc(C)c1-c1cc2nc(n1)NS(=O)(=O)c1cccc(c1)C(=O)NCC(CN1CCCCC1)O2 (stereo not shown) [Compound 410]
EC50 (Table 8): 3 to 30 µM

CC[C@H]1NC(=O)c2cccc(c2)S(=O)(=O)Nc2nc(cc(-c3c(C)cccc3C)n2)O[C@H]1c1ccc(C(C)(C)C)cc1 [Compound 132]
Ent. A Max Activity (Table 9): +++ (+++ is >60%) | EC50 (Table 9): < 1 µM
